From patent EP2197279B1, “C10-SUBSTITUTED CAMPTOTHECIN ANALOGS” (BIONUMERIK PHARMACEUTICALS, INC., priority 2007, dated 2009)
Where two headings read alike, the source gives them in different places.

Assays:
[1] = cited from earlier work; for Non-Hematologic Toxicity No. of Patients With: Cystitis / Non-Hematologic Toxicity No. of Patients With: Diarrhea: 5-day Course; for Number of Patients with Non-Hematologic Toxicity: Cystitis / Number of Patients with Non-Hematologic Toxicity: Diarrhea: Single-Dose Method
[2] = system: advanced gastrointestinal cancer; conditions: cited from earlier work
[3] = eight patients with measurable disease, 5-day courses at dose levels associated with toxicity; cited from earlier work
[4] = system: advanced malignant melanoma; conditions: fifteen patients, 90-360 mg/m^2 repeated every 2 weeks; cited from earlier work
human plasma proteins = assay: Percent of free camptothecin analogs in human plasma (dialysis, HPLC); format: in vitro ADME; conditions: 100 nM Compound Concentrations
Protocol: Stocks of various camptothecin analogs were prepared in DMSO. […] Optimum HPLC detection conditions for each camptothecin analog were developed using traditional HPLC methods. Table VIII. Percent of Free Camptothecin Analogs in Human Plasma (100 nM Compound Concentrations)

[5] = system: panel of over 20 human cancer cell lines; assay: In vitro studies on a panel of human cancer cell lines; format: cell-based; conditions: compared with Topotecan or SN-38
[6] = 15 mg/m^2 X 5, 9 patients treated
[7] = 17 mg/m^2 X 5, 5 patients treated
[8] = 20 mg/m^2 X 5, 10 patients treated
[9] = 5-Day Course (27 Patients Total), 4 wks
[10] = 5-Day Course (27 Patients Total), 8 wks
[11] = 5-Day Course (27 Patients Total), 12 wks
[12] = Single-Dose Method (34 Patients Total), 3 wks
[13] = Single-Dose Method (34 Patients Total), 6 wks
[14] = Single-Dose Method (34 Patients Total), 9 wks
[15] = Single-Dose Method (34 Patients Total), 12 wks

## CC[C@@]1(O)C(=O)OCc2c1cc1n(c2=O)Cc2cc3ccccc3nc2-1 [CPT sodium]
[1]; 5-Day Course (P<0.05)
  Cystitis: 48 (P<0.05) % of 27 Patients
[1]; 11 mg/m^2 X 5, 2 patients treated
  Non-Hematologic Toxicity No. of Patients With: Cystitis: 1
[1]; [6]
  Non-Hematologic Toxicity No. of Patients With: Cystitis: 4
  Non-Hematologic Toxicity No. of Patients With: Diarrhea: 1
[1]; [7]
  Non-Hematologic Toxicity No. of Patients With: Cystitis: 2
  Non-Hematologic Toxicity No. of Patients With: Diarrhea: 4
[1]; [8]
  Non-Hematologic Toxicity No. of Patients With: Cystitis: 6
  Non-Hematologic Toxicity No. of Patients With: Diarrhea: 4
[1]; 22 mg/m^2 X 5, 1 patient treated
  Non-Hematologic Toxicity No. of Patients With: Diarrhea: 1
[1]; Single Dose
  Cystitis: 24 % of 34 Patients
[1]; 100 mg/m^2, 6 patients treated
  Number of Patients with Non-Hematologic Toxicity: Cystitis: 2
[1]; 110 mg/m^2, 2 patients treated
  Number of Patients with Non-Hematologic Toxicity: Cystitis: 1
  Number of Patients with Non-Hematologic Toxicity: Diarrhea: 1
[1]; 120 mg/m^2, 7 patients treated
  Number of Patients with Non-Hematologic Toxicity: Cystitis: 2
  Number of Patients with Non-Hematologic Toxicity: Diarrhea: 4
[1]; 180 mg/m^2, 9 patients treated
  Number of Patients with Non-Hematologic Toxicity: Cystitis: 3
  Number of Patients with Non-Hematologic Toxicity: Diarrhea: 2
[2]; [9]
  Objective Results: Improved: 1
  Objective Results: Stable: 12
  Objective Results: Worse: 14
[2]; [10]
  Objective Results: Stable: 7
  Objective Results: Worse: 20
[2]; [11]
  Objective Results: Stable: 6
  Objective Results: Worse: 21
[2]; Single-Dose Method (34 Patients Total), 3 wks after start of therapy
  Objective Results: Improved: 4
[2]; [12]
  Objective Results: Stable: 17
  Objective Results: Worse: 13
[2]; [13]
  Objective Results: Improved: 2
  Objective Results: Stable: 11
  Objective Results: Worse: 21
[2]; [14]
  Objective Results: Improved: 2
  Objective Results: Stable: 8
  Objective Results: Worse: 24
[2]; [15]
  Objective Results: Stable: 6
  Objective Results: Worse: 28
[2]; after 2 months (8 or 9 weeks), of 61 patients
  patients with partial objective improvement: two
[2]; at 3 months, of 61 patients
  patients showing improvement: none
[2]; at 3 wks, only
  patients showing a 25%-50% response: *A total of 3 patients showed a 25%-50% response at 3 wks, only.
[3]
  clinical benefit: No clinical benefit
[4]
  myelosuppression: 11 patients
  patients with a 50% or greater decrease in tumor diameter: None

## CC[C@@]1(O)C(=O)OCc2c1cc1n(c2=O)Cc2c-1nc1ccccc1c2CC[Si](C)(C)C [Karenitecin (BNP1350), (4S)-4-ethyl-4-hydroxy-11-[2-(trimethylsilyl)ethyl]-1H-pyrano[3':4':6,7]indolizino[1,2-b]quinoline-3,14(4H,12H)-dione]
Human plasma proteins
  Percent of Free CPTs: 1%
[5]
  antitumor potency: significantly more potent
